Data from patent US5789422A, “Substituted arylalkylamines as neurokinin antagonists” (Schering Corporation, priority 1996, dated 1998).

Columns and labels:
[1] = biological target: T1, human neurokinin 1 (NK1) receptor (Homo sapiens, UniProt P25103); experiment: Neurokinin receptor binding assay, human NK1; details: CHO cell membranes, [3H]-Substance P, read-out: % Inhibition of NK1 at a dose of 1 μM
T1 construct: expressed in transfected cells; host or cells: CHO (Chinese hamster ovary) cells, membranes
T1 sequence (P25103 whole entry): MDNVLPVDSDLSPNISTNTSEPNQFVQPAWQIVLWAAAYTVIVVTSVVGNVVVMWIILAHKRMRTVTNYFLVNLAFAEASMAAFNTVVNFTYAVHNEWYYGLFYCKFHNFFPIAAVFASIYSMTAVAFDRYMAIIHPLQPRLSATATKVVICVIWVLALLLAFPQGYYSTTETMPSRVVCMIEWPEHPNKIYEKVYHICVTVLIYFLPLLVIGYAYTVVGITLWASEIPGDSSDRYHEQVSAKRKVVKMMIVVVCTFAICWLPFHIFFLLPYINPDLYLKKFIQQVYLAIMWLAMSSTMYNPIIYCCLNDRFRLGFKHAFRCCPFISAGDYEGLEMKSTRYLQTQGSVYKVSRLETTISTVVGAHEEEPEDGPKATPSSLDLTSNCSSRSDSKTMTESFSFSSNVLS
Method: (§1) Chinese Hamster ovary (CHO) cells transfected with the coding regions for the human neurokinin 1 (NK1) of the human neurokinin 2 (NK2) receptors are grown in Dulbecco's minimal essential medium supplemented with 10% fetal calf serum, 0.1 mM non-essential amino acids, 2 mM glutamine, 100 units/ml of penicillin and streptomycin, and 0.8 mg of G418/ml at 37° C. in a humidified atmosphere containing 5% CO2.
(§2) Cells are detached from T-175 flasks with a sterile solution containing 5 mM EDTA in phosphate buffered saline. Cells are harvested by centrifugation and washed in RPMI media at […] for 5 minutes. The pellet is resuspended in Tris-HCl (pH7.4) containing 1 uM phsphoramidon and 4 ug/ml of chymostatin at a cell density of 30×10^6 cells/ml. The suspension is then homogenized in a Brinkman Polytron (setting 5) for 30-45 seconds. The homogenate is centrifuged at 800 x g for 5 min at 4° C. to collect unbroken cells and nuclei. The supernatant is centrifuged in a Sorvall RC5C at 19,000 rpm ([…]) for 30 min at 4° C. The pellet is resuspended, an aliquot is removed for a protein determination (BCA) and washed again. The resulting pellet is stored at -80° C.
(§3) To assay receptor binding, 50 μl of [^3 H]-Substance P (9-Sar, 11-Met) (specific activity 41 Ci/mmol) (Dupont-NEN) (0.8 nM for the NK-1 assay) or [^3 H]-Neurokinin A (specific activity 114 Ci/ mmole) (Zenca) (1.0 nM for the NK-2 assay) is added to tubes containing buffer (50 mM Tris-HCl (pH 7.4) with 1 mM MnCl2 and 0.2% Bovine Serum Albumin) and either DMSO or test compound. Binding is initiated by the addition of 100 μl of membrane (10-20 μg) containing the human NK-1 or NK-2 receptor in a final volume of 200 μl. After 40 minutes at room temperature, the reaction is stopped by rapid filtration onto Whatman GF/C filters which have been presoaked in 0.3% polyethylenimine. Filters are washed 2 times with 3 ml of 50 mM Tris-HCl (pH7.4). Filters are added to 6 mls of Ready-Safe liquid scintillation cocktail and quantified by liquid scintillation spectrometry in a LKB 1219 RackBeta counter. Non-specific binding is determined by the addition of either 1 μM of CP-99994 (NK-1) or 1 μM SR-48968 (NK-2) (both synthesized by the chemistry department of Schering-Plough Research Institute). IC50 values are determined from competition binding curves and Ki values are determined according to Cheng and Prusoff using the experimentally determined value of 0.8 nM for the NK-1 receptor and 2.4 nM for the NK-2 receptor.
(§4) % Inhibition is the difference between the percent of maximum specific binding (MSB) and 100%. The percent of MSB is defined by the following equation, wherein "dpm" is disintegrations per minute: [formula]

[2] = biological target: T2, human neurokinin 2 (NK2) receptor (Homo sapiens, UniProt P21452); experiment: Neurokinin receptor binding assay, human NK2; details: CHO cell membranes, [3H]-Neurokinin A, read-out: % Inhibition of NK2 at a dose of 1 μM
T2 construct: expressed in transfected cells; host or cells: CHO (Chinese hamster ovary) cells, membranes
T2 sequence (P21452 1-398): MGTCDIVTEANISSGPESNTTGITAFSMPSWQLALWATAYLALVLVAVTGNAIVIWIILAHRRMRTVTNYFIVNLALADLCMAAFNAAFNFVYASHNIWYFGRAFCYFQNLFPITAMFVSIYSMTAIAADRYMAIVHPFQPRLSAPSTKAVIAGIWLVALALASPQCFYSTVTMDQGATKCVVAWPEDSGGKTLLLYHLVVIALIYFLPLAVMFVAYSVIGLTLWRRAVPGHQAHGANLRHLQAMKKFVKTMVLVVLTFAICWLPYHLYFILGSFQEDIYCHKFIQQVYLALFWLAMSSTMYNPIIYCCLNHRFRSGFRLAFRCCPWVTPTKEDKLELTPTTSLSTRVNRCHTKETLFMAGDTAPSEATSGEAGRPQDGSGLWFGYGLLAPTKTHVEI
Method: as §1, §2, §3, §4

Row | Compound | inhibition at 1 µM [1] [%] | inhibition at 1 µM [2] [%]
1 | CN(C[C@H](c1ccc(Cl)c(Cl)c1)[C@@H](CN1CCC(O)(c2ccccc2)CC1)OCc1cc(C(F)(F)F)cc(C(F)(F)F)c1)C(=O)c1ccccc1 (relative stereo) [Example 19] | 78 | 18
2 | CN(CC(C(=O)CN1CCC(O)(c2ccccc2)CC1)c1ccc(Cl)c(Cl)c1)C(=O)c1ccccc1 (stereo not shown) [Example 16] | 23 | 96
3 | CON=C(CN1CCC(O)(c2ccccc2)CC1)C(CN(C)C(=O)c1ccccc1)c1ccc(Cl)c(Cl)c1 (stereo not shown) [Example 18] | 1 | 15
4 | CN(C[C@H](c1ccc(Cl)c(Cl)c1)[C@@H](O)CN1CCC(O)(c2ccccc2)CC1)C(=O)c1ccccc1 (relative stereo) [Example 2] | 81 | 88
5 | COC(CN1CCC(O)(c2ccccc2)CC1)C(CNC(=O)OC(C)(C)C)c1ccc(Cl)c(Cl)c1 (stereo not shown) [Example 12] | 9 | 68
